Assay results from ChEMBL document CHEMBL1201862, “PubChem BioAssay data set” (2004).
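Protocol summary: plate cells (96-well), add compound at 5 concentrations, incubate 48 h, interpolate endpoints linearly. GI50 = concentration required for 50% inhibition of growth.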 Active and inactive are the calls of the source. Rule as the data show it: active = GI50 up to about 1.1 µM and inactive = higher.

Assays:
Test in all cases: NCI anticancer screen, dose series, 48 h
K562 = tested on: K562
UACC-257 = tested on: UACC-257
SK-MEL-2 = tested on: SK-MEL-2
MOLT-4 = tested on: MOLT-4
A498 = tested on: A498
SK-MEL-28 = tested on: SK-MEL-28
UO-31 = tested on: UO-31
SN12C = tested on: SN12C
SW-620 = tested on: SW-620
U-251 = tested on: U-251
CCRF-CEM = tested on: CCRF-CEM
LOX IMVI = tested on: LOX IMVI
RXF 393 = tested on: RXF 393
ACHN = tested on: ACHN
SNB-78 = tested on: SNB-78
Malme-3M = tested on: Malme-3M
DLD-1 = tested on: DLD-1
SNB-19 = tested on: SNB-19
A549 = tested on: A549
HOP-92 = tested on: HOP-92
OVCAR-8 = tested on: OVCAR-8
SK-MEL-5 = tested on: SK-MEL-5
OVCAR-5 = tested on: OVCAR-5
KM-20L2 = tested on: KM-20L2
KM12 = tested on: KM12
UACC-62 = tested on: UACC-62
NCI-H23 = tested on: NCI-H23
RPMI-8226 = tested on: RPMI-8226
SK-OV-3 = tested on: SK-OV-3
HOP-62 = tested on: HOP-62
DMS-114 = tested on: DMS-114
CAKI-1 = tested on: CAKI-1
HCT-116 = tested on: HCT-116
OVCAR-4 = tested on: OVCAR-4
TK-10 = tested on: TK-10
IGROV-1 = tested on: IGROV-1
LXFL 529 = tested on: LXFL 529
HCC 2998 = tested on: HCC 2998
DMS-273 = tested on: DMS-273
NCI-H460 = tested on: NCI-H460
HCT-15 = tested on: HCT-15
HL-60 = tested on: HL-60
COLO 205 = tested on: COLO 205
SF-268 = tested on: SF-268
786-0 = tested on: 786-0
NCI-H522 = tested on: NCI-H522
HT-29 = tested on: HT-29
M19-MEL = tested on: M19-MEL
NCI-H226 = tested on: NCI-H226
SF-539 = tested on: SF-539
SNB-75 = tested on: SNB-75
M14 = tested on: M14
SF-295 = tested on: SF-295
HOP-18 = tested on: HOP-18
SR = tested on: SR

`NNC(=O)CCC(=O)NC1C2CC3CC(C2)CC1C3` (centres undefined) was tested, and the GI50 (K562) was > 100 µM (inactive), the GI50 (UACC-257) was > 100 µM (inactive) and the GI50 (SK-MEL-2) was > 100 µM (inactive). For the same compound, the GI50 (MOLT-4) was 43.5 µM (inactive), the GI50 (A498) was > 100 µM (inactive) and the GI50 (SK-MEL-28) was > 100 µM (inactive). For the same compound, the GI50 (UO-31) was > 100 µM (inactive), the GI50 (SN12C) was > 100 µM (inactive) and the GI50 (SW-620) was > 100 µM (inactive). The GI50 (U-251) was > 100 µM (inactive), the GI50 (CCRF-CEM) was > 100 µM (inactive) and the GI50 (LOX IMVI) was > 100 µM (inactive). The GI50 (RXF 393) was 45.4 µM (inactive), the GI50 (ACHN) was > 100 µM (inactive) and the GI50 (SNB-78) was > 100 µM (inactive). For the same compound, the GI50 (Malme-3M) was > 100 µM (inactive), the GI50 (DLD-1) was > 100 µM (inactive) and the GI50 (SNB-19) was > 100 µM (inactive). For the same compound, the GI50 (A549) was > 100 µM (inactive), the GI50 (HOP-92) was > 100 µM (inactive) and the GI50 (OVCAR-8) was > 100 µM (inactive). The GI50 (SK-MEL-5) was > 100 µM (inactive), the GI50 (OVCAR-5) was > 100 µM (inactive) and the GI50 (KM-20L2) was > 100 µM (inactive). For the same compound, the GI50 (KM12) was > 100 µM (inactive), the GI50 (UACC-62) was > 100 µM (inactive) and the GI50 (NCI-H23) was > 100 µM (inactive). The GI50 (RPMI-8226) was > 100 µM (inactive), the GI50 (SK-OV-3) was > 100 µM (inactive) and the GI50 (HOP-62) was > 100 µM (inactive). The GI50 (DMS-114) was > 100 µM (inactive), the GI50 (CAKI-1) was > 100 µM (inactive) and the GI50 (HCT-116) was > 100 µM (inactive). For the same compound, the GI50 (OVCAR-4) was > 100 µM (inactive), the GI50 (TK-10) was > 100 µM (inactive) and the GI50 (IGROV-1) was > 100 µM (inactive). For the same compound, the GI50 (LXFL 529) was > 100 µM (inactive), the GI50 (HCC 2998) was > 100 µM (inactive) and the GI50 (DMS-273) was > 100 µM (inactive). The GI50 (NCI-H460) was > 100 µM (inactive), the GI50 (HCT-15) was greater than 100 µM and the GI50 (HL-60) was > 100 µM (inactive). The GI50 (COLO 205) was > 100 µM (inactive), the GI50 (SF-268) was > 100 µM (inactive) and the GI50 (786-0) was > 100 µM (inactive). For the same compound, the GI50 (NCI-H522) was > 100 µM (inactive), the GI50 (HT-29) was > 100 µM (inactive) and the GI50 (M19-MEL) was > 100 µM (inactive). For the same compound, the GI50 (NCI-H226) was > 100 µM (inactive), the GI50 (SF-539) was > 100 µM (inactive) and the GI50 (SNB-75) was > 100 µM (inactive). For the same compound, the GI50 (M14) was > 100 µM (inactive) and the GI50 (SF-295) was > 100 µM (inactive).

With `COc1ccc(/C=C2\SC(c3ccc(OC)cc3)N(NC(=O)Cc3ccccc3)C2=O)cc1` (centres undefined) the GI50 (K562) was 88.1 µM (inactive), the GI50 (UACC-257) was > 100 µM (inactive) and the GI50 (SK-MEL-2) was > 100 µM (inactive). The GI50 (MOLT-4) was 79.3 µM (inactive), the GI50 (A498) was > 100 µM (inactive) and the GI50 (SK-MEL-28) was > 100 µM (inactive). For the same compound, the GI50 (UO-31) was > 100 µM (inactive), the GI50 (SN12C) was > 100 µM (inactive) and the GI50 (SW-620) was > 100 µM (inactive). For the same compound, the GI50 (U-251) was > 100 µM (inactive), the GI50 (CCRF-CEM) was > 100 µM (inactive) and the GI50 (LOX IMVI) was > 100 µM (inactive). The GI50 (RXF 393) was 63.7 µM (inactive), the GI50 (ACHN) was > 100 µM (inactive) and the GI50 (Malme-3M) was > 100 µM (inactive). The GI50 (DLD-1) was > 100 µM (inactive), the GI50 (A549) was > 100 µM (inactive) and the GI50 (HOP-92) was > 100 µM (inactive). The GI50 (OVCAR-8) was > 100 µM (inactive), the GI50 (SK-MEL-5) was > 100 µM (inactive) and the GI50 (OVCAR-5) was > 100 µM (inactive). The GI50 (KM12) was > 100 µM (inactive), the GI50 (UACC-62) was > 100 µM (inactive) and the GI50 (NCI-H23) was > 100 µM (inactive). The GI50 (RPMI-8226) was 76.4 µM (inactive), the GI50 (SK-OV-3) was > 100 µM (inactive) and the GI50 (HOP-62) was > 100 µM (inactive). For the same compound, the GI50 (DMS-114) was > 100 µM (inactive), the GI50 (CAKI-1) was > 100 µM (inactive) and the GI50 (HCT-116) was > 100 µM (inactive). The GI50 (OVCAR-4) was > 100 µM (inactive), the GI50 (TK-10) was > 100 µM (inactive) and the GI50 (IGROV-1) was > 100 µM (inactive). For the same compound, the GI50 (LXFL 529) was > 100 µM (inactive), the GI50 (DMS-273) was > 100 µM (inactive) and the GI50 (NCI-H460) was > 100 µM (inactive). The GI50 (HCT-15) was greater than 100 µM, the GI50 (HL-60) was 94.8 µM (inactive) and the GI50 (COLO 205) was > 100 µM (inactive). The GI50 (SF-268) was > 100 µM (inactive), the GI50 (786-0) was > 100 µM (inactive) and the GI50 (NCI-H522) was > 100 µM (inactive). The GI50 (HT-29) was > 100 µM (inactive), the GI50 (M19-MEL) was > 100 µM (inactive) and the GI50 (NCI-H226) was > 100 µM (inactive). The GI50 (HOP-18) was > 100 µM (inactive), the GI50 (SF-539) was > 100 µM (inactive) and the GI50 (SNB-75) was > 100 µM (inactive). For the same compound, the GI50 (M14) was > 100 µM (inactive), the GI50 (SF-295) was > 100 µM (inactive) and the GI50 (SR) was > 100 µM (inactive).
